Data on 79 molecules can be found in the METLIN SMRT retention time set (Domingo-Almenara et al. 2019).

This data set can be described thus: gradient 5% acetonitrile 3 min, to 50% in 2 min, to 85% in 15 min, held 3 min, 100 µL/min. As to conditions: column: Zorbax Extend-C18 2.1 x 50 mm; eluents: water / acetonitrile, 0.1% formic acid. The essentials: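 The system's dead and dwell volumes were 40 μL and 900 μL, with a Zorbax Extend-C18 column (2.1 × 50 mm, 1.8 μm) run at 100 μL/min in water and acetonitrile containing 0.1% formic acid each. Pure standards were analyzed in mixtures of ~100 molecules by HPLC–quadrupole time-of-flight mass spectrometry in positive and negative ionization mode. Retention time was assigned from computationally picked, manually inspected adduct peaks.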
For the molecule `CC(C)NC(=O)C1(C)CC(c2ccccc2)=NO1` (centres undefined), the RP-LC retention time amounted to 799 s.
In turn, `Cc1cccc(NC(=O)C2CCCN(S(=O)(=O)c3cn(C(C)C)cn3)C2)c1` (centres undefined) registered an RP-LC retention time of 803 s.
With `Cc1ccc(N2C(=O)N(Cc3ccccc3F)S(=O)(=O)c3cccnc32)cc1` the figure was 1050 s; with `Cn1ncc2c3ccccc3n(CC(=O)NCCc3c[nH]c4ccc(Cl)cc34)c2c1=O`, 860 s.
Regarding `O=S(=O)(NCC1CCCO1)c1ccc(Cl)c(-c2nnc(-c3ccccc3)o2)c1` (centres undefined), the RP-LC retention time was determined as 914 s.
With `O=C(NC1CC1)c1ccc(N2CCC(NCc3cc(Br)ccc3O)C2)nc1` (centres undefined) the figure was 576 s; with `Cc1ccc(NC(=O)NCC(c2cccnc2)c2cn(C)c3ccccc23)c(C)c1` (centres undefined), 720 s; with `Cc1cc(=O)n(CC(=O)NCc2ccccc2)c(N2CCCC2)n1`, 606 s.
`O=C(O)[C@H](CC(=O)N1C[C@H]2CCCC[C@H]2C1)Cc1ccccc1`: the RP-LC retention time stood at 915 s.
For `CCc1nnc(-c2ccc(=O)n(CC(=O)N3CCC4(CC3)OCCO4)c2)o1` the value was 594 s.
As to `COC(=O)c1cncn1C(C)c1ccccc1` (centres undefined), the RP-LC retention time stood at 737 s.
On to `CC1=C(c2ccc(C)c(C)c2)S(=O)(=O)N=C1N1CCC(NC(=O)NC(C)(C)C)CC1`, for which the RP-LC retention time came out at 1350 s.
Molecule `COc1cc([C@@H]2c3cc4c(cc3[C@@H](O)[C@H]3COC(=O)[C@H]23)OCO4)cc(OC)c1O` showed an RP-LC retention time of 680 s.
On to `CCOC(=O)c1oc2ccc(S(=O)(=O)N3CCC(c4ccncc4)CC3)cc2c1C`, for which the RP-LC retention time came to 730 s.
For `COC1C(=O)N(c2cccc(F)c2)C12CCNCC2` (centres undefined) the value was 604 s.
With `N#Cc1cccc(NC(=O)CSc2nc(N3CCc4ccccc4C3)nc3ccccc23)c1` the figure was 862 s.
On to `CSc1ccc(-c2noc(Cc3nnc(-c4cccc(Br)c4)o3)n2)cc1`, for which the RP-LC retention time worked out at 1170 s.
`CC(C)c1ccc(OCC(=O)Oc2ccc3c(c2)ncn3C)cc1`: the RP-LC retention time amounted to 662 s.
With `CCn1cc(-c2ccc(OC)cc2)cc1C(=O)NCCN1CCN(C)CC1` the figure was 623 s; with `O=S(=O)(c1ccc2c(c1)OCCO2)N1CCC(Cc2nc(-c3cccnc3)n[nH]2)C1` (centres undefined), 633 s.
In turn, `CCC1Oc2ccc(S(=O)(=O)N3CCC(C(=O)NCc4ccccc4OC)CC3)cc2NC1=O` (centres undefined) showed an RP-LC retention time of 839 s.
For `Cc1ccccc1-c1noc(CCn2nc(-c3ccccc3)ccc2=O)n1` the value was 1000 s.
Molecule `COc1ccc(CCS(=O)(=O)NCC2CCN(C(=O)Oc3ccccc3)CC2)cc1` returned an RP-LC retention time of 888 s.
In turn, `Cc1ccc(-c2cc(C(=O)NCCc3sccc3C)c(C)[nH]2)cc1C` gave an RP-LC retention time of 1040 s.
Take `CCN(CC)S(=O)(=O)c1ccc2c(c1)CC(C(=O)N1CCN(c3ccccc3)CC1)N2C(C)=O` (centres undefined): the RP-LC retention time stood at 879 s.
Turning to `O=C(Cn1c(=O)oc2ccccc21)N1CCN(S(=O)(=O)C2CC2)CC1`, the RP-LC retention time worked out at 670 s.
With `Cc1cccc(-c2cc3n(n2)CCCN(C(=O)c2n[nH]c4ccccc24)C3)c1` the figure was 860 s.
The molecule `CCOc1ccc(S(=O)(=O)N2CCCC(C(N)=O)C2)cc1C` (centres undefined) came in with an RP-LC retention time of 747 s.
For `Cc1c(O)ccc2c1oc(=O)c1ccccc12` the value was 808 s.
In turn, `Cc1nc(-c2cn(C(C)C)c3ncccc23)sc1C(=O)Nc1ccccc1F` displayed an RP-LC retention time of 1090 s.
For `O=C(CCC(=O)N1CC2CCCN2c2ccccc21)NCc1ccc2c(c1)OCO2` (centres undefined) the value was 855 s; for `Cc1cccc(N2CCN(S(=O)(=O)c3cc4n(c3)CCCNC4=O)CC2)c1`, 758 s.
With `CCc1ccccc1NC(=O)N1CCc2nc(-c3ccccc3)ncc2C1` the figure was 924 s; with `CC1Oc2ccc(S(=O)(=O)N3CCC(C(=O)NC4CCCC4)CC3)cc2NC1=O` (centres undefined), 740 s; with `Cc1ccc(N2CC(c3nc(-c4cccs4)no3)CC2=O)cc1` (centres undefined), 877 s.
`O=C(Nc1ccccc1F)NC1CCN(C(=O)C2CC2)C1` (centres undefined) came in with an RP-LC retention time of 673 s.
`Cc1noc(-c2ccnc(-n3cnc(C(=O)NC4CCCCCC4)c3)c2)n1` came in with an RP-LC retention time of 915 s.
For `Cc1noc(C2CN(C(=O)c3cc4ccccc4[nH]3)C2)n1` the value was 675 s; for `O=C(Nc1ccc(N2CCN(c3ccccc3)C2=O)nc1)C1CCC1`, 844 s.
Molecule `O=C(Nc1ccc(F)c(F)c1)C1CCN(C(=O)C2Sc3ccccc3NC2=O)CC1` (centres undefined) yielded an RP-LC retention time of 810 s.
In turn, `CCC(C)NC(=O)NCCC1CCN(S(=O)(=O)c2ccc(F)cc2)CC1` (centres undefined) had an RP-LC retention time of 814 s.
Regarding `CC(=O)Nc1ccc(-c2noc(C3CCN(C(=O)c4ccc(Br)cc4)CC3)n2)cc1`, the RP-LC retention time stood at 841 s.
With `Cn1cccc1C(=O)N1CCCCC1c1nncn1Cc1ccccc1` (centres undefined) the figure was 745 s.
In turn, `COc1cccc(CCc2nc(-c3ccc4oc(C)nc4c3)no2)c1` gave an RP-LC retention time of 1030 s.
For `Cc1ccc(NC(=O)N2CCN(CCn3cnc4cccnc43)CC2)c(Cl)c1` the value was 584 s; for `CN(C)C(=O)c1ccc2c(c1)nnn2CCNC(=O)Nc1ccccc1F`, 638 s.
For `Cc1nn2c(S(=O)(=O)N3CCCCC3)c(C)nc2s1` the value was 792 s; for `c1cc(N2CCSCC2)ncc1-c1noc(CN2CCOCC2)n1`, 702 s; for `COc1ccccc1NC(=O)C(C)C1CCN(C(=O)Nc2ccc(Cl)cc2)CC1` (centres undefined), 938 s.
Molecule `COc1ccc(-n2nc3c(N4CCCC(C(=O)NCCc5cccs5)C4)nnc(C)c3c2C)cc1` (centres undefined) displayed an RP-LC retention time of 722 s.
For `O=C(c1cc(-c2ccncc2)n[nH]1)N1CCC(C(=O)N2CCN(c3ncccn3)CC2)CC1`, the RP-LC retention time is 575 s.
With `COc1cc(NC(=O)N2CCc3c(c(C(=O)N4CCCC4)nn3C)C2)cc(OC)c1` the figure was 693 s.
As to `Cc1ccc(Cn2c(N3CCCC(C(=O)NCCc4cccs4)C3)nc3ccsc3c2=O)cc1` (centres undefined), the RP-LC retention time came to 1000 s.
With `Cc1nn2c(CNS(=O)(=O)Cc3cccc(Cl)c3)c(-c3ccccc3)nc2s1` the figure was 978 s; with `Cn1nc(-c2ccccc2)cc1N`, 599 s.
With `CCN1C(=O)c2cccc3c(NC(=O)CSc4ccc(Cl)cc4)ccc1c23` the figure was 861 s; with `CC(C)(N)C(=O)N[C@H](COCc1ccccc1)C(=O)N1CCC2(CC1)CN(S(C)(=O)=O)c1ccccc12`, 777 s; with `CCn1c(=O)c(N2CCN(C(=O)c3cccs3)CC2)nc2cccnc21`, 900 s.
For `COCc1nnc(C(=O)Nc2ccc(C(=O)NCCc3c[nH]c4ccc(OC)cc34)cc2)s1` the value was 790 s.
`COC(=O)c1cnc(N2CCN(c3ccccc3)CC2)c2ccccc12` gave an RP-LC retention time of 1160 s.
With `Cc1cccc(-c2nc(-c3ccc(-n4cccn4)nc3)no2)c1` the figure was 1330 s.
With `CCc1ccc(CNC(=O)c2cc3n(n2)CC(C)(C(=O)NCc2ccccc2)N(C)C3=O)cc1` (centres undefined) the figure was 832 s.
With `O=c1n(CCc2ccccc2)nc2c(S(=O)(=O)N3CCN(c4ccc(F)cc4)CC3)cccn12` the figure was 989 s; with `COc1cc2c(cc1NC(=O)c1cccs1)n(C)c(=O)n2C`, 717 s.
Take `COCCC(=O)N1CCC2(CCC2NC(=O)COC)CC1` (centres undefined): the RP-LC retention time was 594 s.
For `CCNc1cc(N2CCC(CCC(=O)N3CCC(C)CC3)CC2)ncn1`, the RP-LC retention time turned out to be 548 s.
For `O=S(=O)(Cc1ccccc1)N1CCC(c2noc(-c3cnccn3)n2)C1` (centres undefined), the RP-LC retention time was found to be 797 s.
With `COc1ccc(-c2cc3c(=O)n(CC(=O)NCC4CCCO4)ncn3n2)cc1` (centres undefined) the figure was 720 s; with `COc1ccc(N(Cc2nnc3n2CCCCC3)C(=O)Nc2cccc(OC)c2)cc1`, 714 s.
The molecule `COc1ccc(NC(=O)N2CCC(n3c(CC(C)C)nc4cccnc43)CC2)c(OC)c1` gave an RP-LC retention time of 676 s.
For `Cc1ccc(S(=O)(=O)CC(=O)Nc2nc(-c3ccc(F)cc3)cs2)cc1` the value was 988 s; for `O=C(NCc1cccnc1)C1c2ccccc2C(=O)N1CCc1ccc(Cl)cc1` (centres undefined), 668 s.
In the case of `Cc1cc(C)n(-c2nc3cc(Cl)ccc3nc2N2CCN(c3ccccn3)CC2)n1`, the RP-LC retention time was 754 s.
For `CCN1C(=O)COc2ccc(-c3nc(NC(=O)c4cc(OC)c(OC)c(OC)c4)sc3C)cc21` the value was 1020 s; for `CC(=O)C1=C(C)N(CC2CCCO2)C(=O)C1(NC(=O)c1ccc(C(C)(C)C)cc1)C(F)(F)F` (centres undefined), 1050 s.
With `Cc1ccn2cc(C(=O)NCc3ccc(N4CCOCC4)cc3)nc2c1` the figure was 591 s; with `Cc1cc(Cl)ccc1N1C(=O)CN(S(C)(=O)=O)CC1(C)C(=O)NC1CCCCCC1` (centres undefined), 984 s; with `CCOC(=O)Cc1sc(Nc2c(C)n[nH]c2C)nc1-c1ccccc1`, 688 s.
For `CC1CCC(C(=O)Nc2cc3c(cc2N2CCOCC2)n(C)c(=O)c(=O)n3C)CC1` (centres undefined) the value was 782 s.
